# Patent US11241455B2, “Methods of treating disease by metabolic control of T-cell differentiation” (The J. David Gladstone Institutes, a testamentary trust …, priority 2016, dated 2022)
# Experiments:
# [1] = test system: differentiating iTreg cells; experiment: iTreg differentiation of CD4 naïve T cells (FOXP3-GFP reporter or intracellular staining of FOXP3); format: cell-based, mouse; conditions: AOA added after 24 hours, analyzed at end of differentiation
# Method: CD4 naïve T cells (CD4+CD25-CD62^highCD44^low) were obtained from interleukin (IL)-17F-red fluorescent protein (RFP)/FOXP3-green fluorescent protein (GFP) mice, which were characterized previously, or wild-type C57/BL6 mice, by cell sorting. 0.4 million cells were plated into 48 wells coated with anti-mouse CD3 (clone 145-2C11, eBioscience) […] and anti-mouse CD28 (clone 37.51, eBioscience) (1 μg/ml). The differentiation media for these naïve T cells was as follows: 0.5 ng/ml (or indicated) transforming growth factor (TGF) β, 200 U/ml mouse IL-2, 2 μg/ml anti-interferon (IFN) γ and 2 μg/ml anti-mouse IL4 for differentiation into iTreg cells; and 2.5 ng/ml TGFβ, 10 ng/ml mouse IL-1β, 10 ng/ml mouse IL-6, 10 ng/ml mouse IL-23, 2 μg/ml anti-mouse IFNγ, and anti-mouse IL-4 for differentiating into TH17 cells. The cells were supplemented with new medium at day 4. In cases in which small-molecule compounds were present, the fresh medium containing the same concentration of compounds was used. When necessary, the individual metabolite was added into the T-cell culture 6 hours later after initial cell plating. […]
# [2] = test system: EAE induced in C57BL/6 mice; experiment: Mouse experimental autoimmune encephalitis (EAE) model; format: in vivo
# Method: EAE was induced by immunizing mice (12 weeks old, 11-12 mice/group) twice with 300 μg of MOG35-55 peptide (amino acids 35-55; MEVGWYRSPFSROVHLYRNGK (SEQ ID NO: 2)) emulsified in complete Freund's adjuvant, followed by pertussis toxin injection and analyzed. The disease scores were assigned on a scale of 0-5 as follows: 0, none; 1, limp tail or waddling gait with tail tonicity; 2, wobbly gait; 3, hind limb paralysis; 4, hind limb and forelimb paralysis; 5, death. When the disease phenotype was very obvious (average score>1), PBS or (aminooxy)-acetic acid (AOA) (750 μg/mice) was intraperitoneal (i.p.) injected every day. After 8 days of administration of AOA or PBS, the mice were anesthetized, and cells infiltrated into brain and spinal cord were collected for analysis. When indicated, the statistical significance was determined by Student's t test (*, p<0.05; **, p<0.01; ***, p<0.001). All animal work was approved by the Institutional Animal Care and Use Committee (IACUC).
# The in vitro findings that AOA regulates the TH17/iTreg balance prompted an investigation into the effects of AOA in vivo in the context of a pathologic TH17-dependent disease state. TH17 cells are the major pathogenic cell population in experimental autoimmune encephalomyelitis (EAE), a mouse model of multiple sclerosis, but FOXP3+regulatory T cells suppress TH17 cell-mediated inflammatory diseases, such as EAE. In the in vitro studies, AOA skewed TH17 differentiation towards FOXP3+ iTreg cells and, therefore, offers a potential to treat TH17-mediated autoimmune diseases. To test this possibility, EAE was induced in C57BL/6 mice by immunizing with myelin oligodendrocyte glycoprotein peptide (MOG35-55) in complete Freund's adjuvant (CFA) as described. AOA or control vehicle was injected daily intraperitoneally after a majority of the mice began to show obvious neurological signs, including tail paralysis that progressed to hind and front limb paralysis (disease score>1). […] The ratio of FOXP3+ cells to IL17+ cells is much higher in AOA-treated mice than in control mice (FIG. 4c).
# [3] = brain and spinal cord infiltrated T cells after 8 days of AOA 750 μg/mice i.p. daily, p<0.01
smiles,measurement,setting,value
"NOCC(=O)O [AOA, (aminooxy)-acetic acid]",iTreg cell induction under iTreg differentiation conditions,[1],dose-dependently promote iTreg cell induction
same,"recovery from EAE diseases (disease scores, scale of 0-5)","[2]; 750 μg/mice i.p. every day, started when average score>1, versus PBS",significant recovery from EAE diseases
same,ratio of FOXP3+ cells to IL17+ cells,"[2]; AOA-treated mice versus control mice, CNS infiltrated T cells",much higher
same,percentage of FOXP3+ T cells in the central nervous system,[2]; [3],increased
same,percentage of TH17 cells in the central nervous system,[2]; [3],significantly reduced
